Data reported in patent US8716293B2, “Macrocyclic integrase inhibitors” (Janssen R&D Ireland, priority 2010, dated 2014).

What was measured:
[1] = system: HIV-1 SDM strain Q148R; assay: cell-based HIV-1 replication assay in MT4-LTR-EGFP cells, Q148R mutant; conditions: fold change in activity against Q148R mutant compared to wild type HIV
Source text: (§1) MT4-LTR-enhanced green fluorescent protein (EGFP) cells were obtained by transfecting MT4 cells with a selectable construct encompassing the coding sequences for the HIV LTR as a promoter for the expression of EGFP and subsequent selection of permanently transfected cells. MT4-cytomegalovirus (CMV)-EGFP cells were obtained by selection for permanently transformed MT4 cells with a CMV-EGFP reporter gene. Cell lines were maintained in RPMI 1640 medium supplemented with 10% heat-inactivated fetal calf serum, 2 mM L-glutamine, 0.1% NaHCO3, and antibiotics (0.02% gentamicin and 0.8% G418) and incubated in a humidified incubator with a 5% CO2 atmosphere at 37° C.
(§2) N155H and Q148R mutant Integrase coding sequences were constructed in the pUC19-5′HXB2D vector (XbaI-SalI fragment of pHXB2D), containing the HIV-1 clone HXB2D IN coding sequence, by using a QuikChange site-directed mutagenesis kit (Stratagene, La Jolla, Calif.) and HPLC-purified primers (Genset Oligos, La Jolla, Calif.). Altered plasmid sequences were confirmed by dideoxyribose sequencing. For generation of site-directed mutant (SDM) virus stocks, MT4 cells were subcultured at a density of 250,000 cells/ml on the day before transfection. Cells were pelleted and resuspended in phosphate-buffered saline at a concentration of 3.1×10^6 cells/ml. A 0.8-ml portion ([…]) was used for each transfection. Transfections were performed with a Bio-Rad Gene Pulser (Bio-Rad, Hercules, Calif.) with 0.4-cm electrode cuvettes (Bio-Rad). Cells were electroporated with 10 μg of SalI-linearized pUC19-3′HXB2D (SalI-XbaI fragment of pHXB2D) and 5 μg of SalI-digested SDM at 250 μF and 300 V, followed by a 30-min incubation at room temperature. Ten ml of fresh culture medium was then added to the suspension of transfected cells, and incubation was performed at 37° C. in a humidified atmosphere with 5% CO2. Cell cultures were monitored for the appearance of cytopathic effect (CPE).
(§3) The inhibitory antiviral activity of different compounds was determined in a cell-based HIV-1 replication assay. MT4-LTR-EGFP cells (150,000 cells/ml) were infected with HIV-1 (IIIB or SDM strains Q148R, N155H, or G140S-Q148H; multiplicity of infection [MOI] of 0.0025) in the presence or absence of inhibitor. After 3 days of incubation, the inhibition of HIV replication was quantified by measuring EGFP fluorescence, and expressed as the compound concentration required for 50% inhibition of HIV-1 replication in cell culture (EC50).

[2] = system: HIV-1 SDM strain N155H; assay: cell-based HIV-1 replication assay in MT4-LTR-EGFP cells, N155H mutant; conditions: fold change in activity against N155H mutant compared to wild type HIV
Source text: as §1, §2, §3

[3] = system: HIV-1 SDM strain G140S-Q148H; assay: cell-based HIV-1 replication assay in MT4-LTR-EGFP cells, G140S-Q148H mutant; conditions: fold change in activity against G140S-Q148H mutant compared to wild type HIV
Source text: as §1, §2, §3

[4] = system: HIV-1 LAI (IIIB); assay: antiviral assay in the presence of 50% human serum; format: cell-based; conditions: MT-4-LTR-EGFP cells, 4 days, resazurin cell viability
Procedure: For the antiviral assay in the presence of 50% human serum, MT-4-LTR-EGFP cells were infected with HIV-1 LAI (IIIB) at a MOI of 0.001 to 0.01 CCID50/cell in RPMI1640 medium. Following 1 h of incubation, cells were washed and plated into a 96-well plate containing serial dilutions of test compound in the presence of 10% fetal calf serum or 50% human serum. After 4 days of incubation, the EC50 in the presence of 50% human serum (EC50/HS) was determined by a cell viability assay using resazurin (as described by Fields, R. D., and M. V. Lancaster (1993) Am. Biotechnol. Lab. 11:48-50).

| Compound | FC-Q148R [1] | FC-N155H [2] | FC-G140S-Q148H [3] | EC50 [4] |
| --- | --- | --- | --- | --- |
| CCN1C[C@H](C)n2c(c(O)c3c(=O)n4nc(c32)N2CCN(CCCCCOc3cc(F)ccc3C4)S2(=O)=O)C1=O [Compound 2a] | 0.7 | 25.3 | 3.3 | 682 nM |
| CCN1C[C@H](C)n2c(c(O)c3c(=O)n4nc(c32)N2CCN(CCCCCOc3cc(F)ccc3C4)S2(=O)=O)C1=O [Compound 2b] | 0.9 | 8.0 | 6.2 | 8 nM |
| CCN1C[C@H](C)n2c(c(O)c3c(=O)n4nc(c32)N(C)S(=O)(=O)CCCOc2cc(F)ccc2C4)C1=O [Compound 8] | 3.3 | 11.7 | 11.3 | 10 nM |
| CCN1C[C@H](C)n2c(c(O)c3c(=O)n4nc(c32)N(C)S(=O)(=O)[C@@H](C)CCCCOc2cc(F)ccc2C4)C1=O [Compound 9] | 0.4 | 2.0 | 1.2 | 1930 nM |
| CCN1C[C@H](C)n2c(c(O)c3c(=O)n4nc(c32)N(C)S(=O)(=O)[C@H](C)CCCCOc2cc(F)ccc2C4)C1=O [Compound 10] | 0.5 | 2.8 | 1.2 | 17 nM |
| CCN1C[C@H](C)n2c(c(O)c3c(=O)n4nc(c32)N(CC)S(=O)(=O)CCCCOc2cc(F)ccc2C4)C1=O [Compound 11] | 2.1 | 5.1 | 14.3 | 9 nM |
| CCN1C[C@H](C)n2c(c(O)c3c(=O)n4nc(c32)N(C2CC2)S(=O)(=O)CCCCOc2cc(F)ccc2C4)C1=O [Compound 12] | 0.7 | 3.5 | 5.1 | 13 nM |
| CCN1c2nn(c(=O)c3c(O)c4n(c23)[C@@H](C)CN(C(C)C)C4=O)Cc2ccc(F)cc2OCCCCS1(=O)=O [Compound 13] | 0.7 | 3.5 | 2.6 | 11 nM |
| CC(C)N1C[C@H](C)n2c(c(O)c3c(=O)n4nc(c32)N(C2CC2)S(=O)(=O)CCCCOc2cc(F)ccc2C4)C1=O [Compound 14] | 1.0 | 3.5 | 4.3 | 18 nM |
| CCN1C[C@H](C)n2c(c(O)c3c(=O)n4nc(c32)N(CC)S(=O)(=O)CCCCCOc2cc(F)ccc2C4)C1=O [Compound 15] | 0.5 | 3.4 | 1.4 | 33 nM |
| CCN1C[C@H](C)n2c(c(O)c3c(=O)n4nc(c32)N(C2CC2)S(=O)(=O)CCCCCOc2cc(F)ccc2C4)C1=O [Compound 16] | 0.6 | 3.5 | 1.3 | 43 nM |
| CCN1C[C@H](C)n2c(c(O)c3c(=O)n4nc(c32)N(C)S(=O)(=O)CCCCOc2cc(F)c(Cl)cc2C4)C1=O [Compound 17] | 0.6 | 4.7 | 1.9 | 24 nM |
| CCN1C[C@H](C)n2c(c(O)c3c(=O)n4nc(c32)N(C)S(=O)(=O)CCCCCOc2cc(F)c(Cl)cc2C4)C1=O [Compound 18] | 0.8 | 4.7 | 1.8 | 47 nM |
| CCN1C[C@H](C)n2c(c(O)c3c(=O)n4nc(c32)N(C)S(=O)(=O)CCCCOc2cc(F)c(F)cc2C4)C1=O [Compound 19] | 1.1 | 4.9 | 3.6 | 8 nM |
| CCN1C[C@H](C)n2c(c(O)c3c(=O)n4nc(c32)N(C)S(=O)(=O)CCCCCOc2cc(F)c(F)cc2C4)C1=O [Compound 20] | 0.6 | 4.8 | 1.5 | 17 nM |
| CCN1C[C@H](C)n2c(c(O)c3c(=O)n4nc(c32)N(C)S(=O)(=O)CCCCCNC(=O)c2cc(F)ccc2C4)C1=O [Compound 21] | 0.6 | 6.6 | 1.9 | 54 nM |

| Compound | FC-Q148R [1] | FC-N155H [2] | FC-G140S-Q148H [3] | EC50 [4] |
| --- | --- | --- | --- | --- |
| CCN1C[C@H](C)n2c(c(O)c3c(=O)n4nc(c32)N(C)S(=O)(=O)CCCNC(=O)c2cc(F)ccc2C4)C1=O [Compound 23] | 0.7 | 9.6 | 2.1 | 7 nM |
| CCN1C[C@H](C)n2c(c(O)c3c(=O)n4nc(c32)C(=O)NCCCCOc2cc(F)ccc2C4)C1=O [Compound 24] | 4.3 | 10.4 | 179.1 | 11 nM |
| CCN1C[C@H](C)n2c(c(O)c3c(=O)n4nc(c32)C(=O)NCCCCCOc2cc(Cl)ccc2C4)C1=O [Compound 25] | 0.3 | 3.5 | 3.7 | 138 nM |
| CCN1C[C@H](C)n2c(c(O)c3c(=O)n4nc(c32)C(=O)NCCCCCOc2cc(F)c(Cl)cc2C4)C1=O [Compound 26] | 0.8 | 4.3 | 4.1 | 32 nM |
| CCN1CCn2c(c(O)c3c(=O)n4nc(c32)C(=O)NCCCCCOc2cc(F)ccc2C4)C1=O [Compound 27] | 3.0 | 8.6 | 668.8 | 5 nM |
| C[C@H]1CN(C)C(=O)c2c(O)c3c(=O)n4nc(c3n21)C(=O)NCCCCCOc1cc(F)ccc1C4 [Compound 28] | 0.9 | 4.5 | 17.0 | 14 nM |
| CC(C)N1C[C@H](C)n2c(c(O)c3c(=O)n4nc(c32)C(=O)NCCCCCOc2cc(F)ccc2C4)C1=O [Compound 29] | 0.4 | 3.8 | 2.2 | 19 nM |
| CCN1C[C@H](C)n2c(c(O)c3c(=O)n4nc(c32)C(=O)N(C)CCCCOc2cc(F)ccc2C4)C1=O [Compound 30] | 41.1 | 410.4 | 572.0 | 28 nM |
| CCN1C[C@H](C)n2c(c(O)c3c(=O)n4nc(c32)C(=O)N(C)CCCCCOc2cc(F)c(Cl)cc2C4)C1=O [Compound 32] | 0.3 | 4.3 | 2.6 | 77 nM |
| CCN1C[C@H](C)n2c(c(O)c3c(=O)n4nc(c32)C(=O)N(C)CCCCCOc2cc(F)c(F)cc2C4)C1=O [Compound 34] | 0.4 | 7.4 | 5.9 | 18 nM |
| CC(C)N1C[C@H](C)n2c(c(O)c3c(=O)n4nc(c32)C(=O)N(C)CCCCCOc2cc(F)ccc2C4)C1=O [Compound 35] | 0.4 | 4.8 | 2.7 | 30 nM |
| C[C@H]1CN(C2CC2)C(=O)c2c(O)c3c(=O)n4nc(c3n21)C(=O)NCCCCCOc1cc(F)ccc1C4 [Compound 36] | 2.4 | 5.8 | 60.1 | 18 nM |
| C[C@H]1CN(C2CC2)C(=O)c2c(O)c3c(=O)n4nc(c3n21)C(=O)N(C)CCCCCOc1cc(F)ccc1C4 [Compound 37] | 0.8 | 8.8 | 109.5 | 22 nM |
| CCN1CCn2c(c(O)c3c(=O)n4nc(c32)C(=O)N(C)CCCCCOc2cc(F)ccc2C4)C1=O [Compound 38] | 1.2 | 6.8 | 106.3 | 29 nM |
| CCN1C[C@H](C)n2c(c(O)c3c(=O)n4nc(c32)NCCCNC(=O)c2cc(F)ccc2C4)C1=O [Compound 39] | 1.1 | 4.6 | 2.8 | 3370 nM |
